Assay results published in US10688031B2, “Low-toxicity sophorolipid-containing composition and use therefor” (Saraya Co., Ltd., priority 2013, dated 2020).

How the values were obtained:
HeLa cells = experiment: Cytotoxicity test using HeLa cells (MTT assay); format: cell-based, human; details: 48 hours of treatment
Protocol: HeLa cells (Kurabo Industries, Ltd.) were seeded in a 96-well plate to a concentration of 2×10^4 cells/well and cultured in Dulbecco's Modified Eagle Medium (produced by Nissui Pharmaceutical Co., Ltd.) containing 10% NCS (Newborn Calf Serum: produced by Invitrogen), non-essential amino acids, 58 μg/ml L-glutamic acid, 60 μg/ml kanamycin at 37° C., 5% CO2 for 72 hours. The medium was replaced with media containing the samples. After 48 hours, each medium was replaced with a medium containing 1 mg/ml MTT (3-(4,5-dimethyl-2-thiazolyl)-2,5-diphenyl-2H-tetrazolium bromide). After the treatment was allowed to proceed for 2 hours, formazan dye was extracted with isopropanol. Absorbance at a wavelength of 570 nm was measured. The viability % of the cells was calculated according to the following Formula.
The cell viability was calculated from the above MTT assay, and the cell lethal concentration (IC50) was determined from the obtained cell viability.

[1] = Critical micelle concentration (CMC) and surface tension-reducing ability, Wilhelmy method; format: physicochemical
Protocol: The critical micelle concentration (CMC) and surface tension-reducing ability were measured according to the Wilhelmy method. The measurements were performed at pH 7 at 20° C. using a CBVP-Z automatic surface tensiometer (produced by Kyowa Interface Science Co., Ltd.). For pH adjustment, an aqueous sodium hydroxide solution or an aqueous hydrochloric acid solution was used.
The critical micelle concentration (CMC) and surface tension-reducing ability of these SL-containing compositions were measured, and their performance as surfactants (wettability, solubilizing power, detergency, and foamability) was evaluated. The critical micelle concentration (CMC) and surface tension-reducing ability were measured in the same manner as in Test Example 2 according to the Wilhelmy method. Specifically, the measurement was performed at pH 7 at 20° C. using a CBVP-Z automatic surface tensiometer (produced by Kyowa Interface Science Co., Ltd.).

| Compound | cell lethal concentration (IC50) (HeLa cells) [ppm] | CMC ([1]; Table 5, repeated from Test Example 2) [ppm] | Critical micelle concentration (CMC) ([1]; pH 7, 20° C., Table 4) [ppm] | Surface tension-reducing ability ([1]; pH 7, 20° C., Table 4) [mN/m] |
| --- | --- | --- | --- | --- |
| CCCCCCCC/C=C\CCCCCCCC(=O)O [oleic acid] | 300 | – | – | – |
| CCCCCCCCCCCCOS(=O)(=O)[O-].[Na+] [SLS, Sodium Lauryl Sulfate] | <10 | 300 | 300 | 34.0 |
